Results reported in PubChem BioAssay AID248 (DTP/NCI, 2004).
Values joined by “and” are separate entries in the source; they are usually repeats but may differ in a detail not shown here. Identical values can stand only once. Toxic doses and inconclusive results are not listed. Rule as the data show it: active = T/C of 150% or more; inactive = T/C below 125%.

Tested on: L1210 leukemia ip in BDF1 mice, survival T/C
Assay: NCI In Vivo Anticancer Drug Screen. Data for tumor model L1210 Leukemia (intraperitoneal) in B6D2F1 (BDF1) mice
Details: endpoint: mean survival time, higher = longer survival
How it was run: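 Value reflects the ratio of survival in compound-treated mice to survival in vehicle-treated controls, with both groups carrying the same transplanted tumor.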

[1] = dose: 75.0 mg/kg/injection, schedule: Q01DX001 (ip), vehicle: saline
[2] = dose: 150.0 mg/kg/injection, schedule: Q01DX001 (ip), vehicle: saline
[3] = dose: 100.0 mg/kg/injection, schedule: Q01DX009 (ip), vehicle: saline with Tween-80
[4] = dose: 100.0 mg/kg/injection, schedule: Q04DX003 (ip), vehicle: saline with Tween-80
[5] = dose: 100.0 mg/kg/injection, schedule: Q01DX009 (ip), vehicle: Klucel (hydroxypropylcellulose) (HPC)
[6] = dose: 200.0 mg/kg/injection, schedule: Q01DX009 (ip), vehicle: Klucel (hydroxypropylcellulose) (HPC)
[7] = dose: 200.0 mg/kg/injection, schedule: Q04DX003 (ip), vehicle: saline with Tween-80
[8] = dose: 400.0 mg/kg/injection, schedule: Q04DX003 (ip), vehicle: saline with Tween-80

Measured: T/C

NCCCC(N)C(=O)NCCCCCCNCCCCCCNC(=O)C(N)CCCN (configuration not stated)
inactive: dose: 0.38 mg/kg/injection, schedule: Q01DX Z (ip), vehicle: saline 94 % of control | dose: 0.75 mg/kg/injection, schedule: Q01DX Z (ip), vehicle: saline 102 % of control | dose: 1.5 mg/kg/injection, schedule: Q01DX Z (ip), vehicle: saline 98 % of control | dose: 3.0 mg/kg/injection, schedule: Q01DX Z (ip), vehicle: saline 100 % of control and 106 % of control | dose: 10.0 mg/kg/injection, schedule: Q01DX Z (ip), vehicle: saline 93 % of control | dose: 30.0 mg/kg/injection, schedule: Q01DX Z (ip), vehicle: saline 96 % of control | dose: 50.0 mg/kg/injection, schedule: Q01DX001 (ip), vehicle: saline 101 % of control | dose: 100.0 mg/kg/injection, schedule: Q01DX001 (ip), vehicle: saline 98 % of control | dose: 100.0 mg/kg/injection, schedule: Q01DX Z (ip), vehicle: saline 91 % of control | dose: 200.0 mg/kg/injection, schedule: Q01DX001 (ip), vehicle: saline 95 % of control

NC1CCC(c2ccccc2)(c2ccccc2)C1=O (configuration not stated)
inactive: [1] 100 % of control | [2] 102 % of control

Cc1ccc(CSC(=N)N)cc1C
inactive: dose: 25.0 mg/kg/injection, schedule: Q04DX002 (ip), vehicle: Klucel (hydroxypropylcellulose) (HPC) 98 % of control | dose: 50.0 mg/kg/injection, schedule: Q04DX002 (ip), vehicle: Klucel (hydroxypropylcellulose) (HPC) 103 % of control | dose: 100.0 mg/kg/injection, schedule: Q04DX002 (ip), vehicle: Klucel (hydroxypropylcellulose) (HPC) 101 % of control

Cn1nc2ccccc2n1
inactive: dose: 25.0 mg/kg/injection, schedule: Q01DX009 (ip), vehicle: saline with Tween-80 97 % of control | dose: 50.0 mg/kg/injection, schedule: Q01DX009 (ip), vehicle: saline with Tween-80 106 % of control | [3] 100 % of control | [4] 116 % of control

O=[N+]([O-])c1ccc(Oc2ccccc2[N+](=O)[O-])cc1
inactive: dose: 222.0 mg/kg/injection, schedule: Q01DX Z (ip), vehicle: methylcellulose (MC) 95 % of control | dose: 333.0 mg/kg/injection, schedule: Q01DX Z (ip), vehicle: methylcellulose (MC) 95 % of control | dose: 500.0 mg/kg/injection, schedule: Q01DX Z (ip), vehicle: methylcellulose (MC) 86 % of control

O=C1NC2(CCCCC2)C(=O)N1CCN(CCO)CCO
inactive: dose: 50.0 mg/kg/injection, schedule: Q01DX009 (ip), vehicle: saline 106 % of control | dose: 100.0 mg/kg/injection, schedule: Q01DX009 (ip), vehicle: saline 109 % of control | dose: 200.0 mg/kg/injection, schedule: Q01DX009 (ip), vehicle: saline 93 % of control | dose: 400.0 mg/kg/injection, schedule: Q01DX009 (ip), vehicle: saline 91 % of control

O=C1CC(C(=O)O)C(c2ccccc2F)O1 (configuration not stated)
inactive: dose: 100.0 mg/kg/injection, schedule: Q04DX003 (ip), vehicle: Klucel (hydroxypropylcellulose) (HPC) 98 % of control | dose: 200.0 mg/kg/injection, schedule: Q04DX003 (ip), vehicle: Klucel (hydroxypropylcellulose) (HPC) 101 % of control | dose: 400.0 mg/kg/injection, schedule: Q04DX003 (ip), vehicle: Klucel (hydroxypropylcellulose) (HPC) 103 % of control

CCn1cnc2c(SC)ncnc21
inactive: dose: 75.0 mg/kg/injection, schedule: Q01DX001 (ip), vehicle: acetone 101 % of control | dose: 150.0 mg/kg/injection, schedule: Q01DX001 (ip), vehicle: acetone 106 % of control | dose: 300.0 mg/kg/injection, schedule: Q01DX001 (ip), vehicle: acetone 108 % of control

CCCCCCCC/C=C/CCCCCC1CCCC(C)N1 (configuration not stated)
inactive: dose: 6.25 mg/kg/injection, schedule: Q04DX002 (ip), vehicle: saline 96 % of control | dose: 12.5 mg/kg/injection, schedule: Q04DX002 (ip), vehicle: saline 96 % of control | dose: 25.0 mg/kg/injection, schedule: Q04DX002 (ip), vehicle: saline 111 % of control | dose: 50.0 mg/kg/injection, schedule: Q04DX002 (ip), vehicle: saline 90 % of control

Cc1c(C)c(N)c(C)c(C)c1N
inactive: dose: 6.25 mg/kg/injection, schedule: Q01DX009 (ip), vehicle: Klucel (hydroxypropylcellulose) (HPC) 94 % of control | dose: 12.5 mg/kg/injection, schedule: Q01DX009 (ip), vehicle: Klucel (hydroxypropylcellulose) (HPC) 94 % of control | dose: 12.5 mg/kg/injection, schedule: Q04DX003 (ip), vehicle: Klucel (hydroxypropylcellulose) (HPC) 101 % of control

COc1ccc(OC)c(-c2nnc(Nc3ccc(S(=O)(=O)N4CCCCC4)cc3)s2)c1
inactive: [5] 94 % of control | [6] 91 % of control | dose: 400.0 mg/kg/injection, schedule: Q01DX009 (ip), vehicle: Klucel (hydroxypropylcellulose) (HPC) 91 % of control

CCC(=O)c1ccc(NC(N)=S)cc1
inactive: dose: 20.0 mg/kg/injection, schedule: Q01DX005 (ip), vehicle: saline with Tween-80 94 % of control | dose: 40.0 mg/kg/injection, schedule: Q01DX005 (ip), vehicle: saline with Tween-80 95 % of control | dose: 80.0 mg/kg/injection, schedule: Q01DX005 (ip), vehicle: saline with Tween-80 94 % of control | dose: 160.0 mg/kg/injection, schedule: Q01DX005 (ip), vehicle: saline with Tween-80 101 % of control

CCCN(CCC)N=Nc1ccccc1C(N)=O
inactive: dose: 100.0 mg/kg/injection, schedule: Q01DX001 (ip), vehicle: other 107 % of control | [3] 90 % of control | [4] 104 % of control | dose: 200.0 mg/kg/injection, schedule: Q01DX001 (ip), vehicle: other 102 % of control | dose: 200.0 mg/kg/injection, schedule: Q01DX009 (ip), vehicle: saline with Tween-80 102 % of control | [7] 94 % of control | dose: 400.0 mg/kg/injection, schedule: Q01DX001 (ip), vehicle: other 103 % of control | [8] 98 % of control

O=C(/C=C/c1ccccc1)N/N=C/c1cccs1
inactive: [5] 86 % of control | [6] 88 % of control

O=C1c2cc([N+](=O)[O-])ccc2-c2c(F)cc(F)cc21
inactive: dose: 100.0 mg/kg/injection, schedule: Q04DX003 (ip), vehicle: saline 104 % of control | dose: 200.0 mg/kg/injection, schedule: Q04DX003 (ip), vehicle: saline 89 % of control | dose: 400.0 mg/kg/injection, schedule: Q04DX003 (ip), vehicle: saline 91 % of control

CCCCCCCC(=O)N1C(C)CCC1C (configuration not stated)
inactive: dose: 100.0 mg/kg/injection, schedule: Q04DX002 (ip), vehicle: saline 94 % of control | dose: 200.0 mg/kg/injection, schedule: Q04DX002 (ip), vehicle: saline 94 % of control | dose: 400.0 mg/kg/injection, schedule: Q04DX002 (ip), vehicle: saline 98 % of control

[N-]=[N+]=N/C(=C\c1ccccc1)C(=O)c1ccccc1
inactive: dose: 100.0 mg/kg/injection, schedule: Q01DX001 (ip), vehicle: Klucel (hydroxypropylcellulose) (HPC) 94 % of control | dose: 100.0 mg/kg/injection, schedule: Q04DX003 (ip), vehicle: other 100 % of control | dose: 200.0 mg/kg/injection, schedule: Q01DX001 (ip), vehicle: Klucel (hydroxypropylcellulose) (HPC) 98 % of control | dose: 200.0 mg/kg/injection, schedule: Q04DX003 (ip), vehicle: other 98 % of control | dose: 400.0 mg/kg/injection, schedule: Q01DX001 (ip), vehicle: Klucel (hydroxypropylcellulose) (HPC) 94 % of control | dose: 400.0 mg/kg/injection, schedule: Q04DX003 (ip), vehicle: other 91 % of control

CC(C)c1oc2ccccc2c1C(=O)c1ccncc1
inactive: dose: 75.0 mg/kg/injection, schedule: Q04DX003 (ip), vehicle: saline with Tween-80 97 % of control | dose: 150.0 mg/kg/injection, schedule: Q04DX003 (ip), vehicle: saline with Tween-80 101 % of control | dose: 300.0 mg/kg/injection, schedule: Q04DX003 (ip), vehicle: saline with Tween-80 101 % of control

CCCCCCCC[n+]1cccc(C#N)c1
inactive: dose: 18.75 mg/kg/injection, schedule: Q01DX009 (ip), vehicle: saline 104 % of control | dose: 37.5 mg/kg/injection, schedule: Q01DX009 (ip), vehicle: saline 91 % of control | dose: 37.5 mg/kg/injection, schedule: Q04DX003 (ip), vehicle: acetone 97 % of control | [1] 91 % of control | dose: 75.0 mg/kg/injection, schedule: Q01DX009 (ip), vehicle: saline 93 % of control | dose: 75.0 mg/kg/injection, schedule: Q04DX003 (ip), vehicle: acetone 97 % of control | [2] 95 % of control | dose: 150.0 mg/kg/injection, schedule: Q04DX003 (ip), vehicle: acetone 95 % of control

C=C(Br)CNC(=O)Nc1ccccc1
inactive: [4] 98 % of control | [7] 95 % of control | [8] 102 % of control
